Assay results: patent publication US8058475B2, “Substituted cyclohexylmethyl compounds” (Gruenenthal GmbH, priority 2005, dated 2011)

Target: human μ-opiate receptor (Homo sapiens, UniProt P35372)
Experiment: Affinity for the human μ-opiate receptor ([3H]-naloxone displacement, SPA, CHO-K1 membrane preparation)
Format: binding
Details: for inhibition at 1 µM: read-out: μ-Opioid receptor, % inhibition [1 μM]; for Ki: read-out: μ-Opioid receptor, Ki

Chain of human μ-opiate receptor (P35372 whole entry): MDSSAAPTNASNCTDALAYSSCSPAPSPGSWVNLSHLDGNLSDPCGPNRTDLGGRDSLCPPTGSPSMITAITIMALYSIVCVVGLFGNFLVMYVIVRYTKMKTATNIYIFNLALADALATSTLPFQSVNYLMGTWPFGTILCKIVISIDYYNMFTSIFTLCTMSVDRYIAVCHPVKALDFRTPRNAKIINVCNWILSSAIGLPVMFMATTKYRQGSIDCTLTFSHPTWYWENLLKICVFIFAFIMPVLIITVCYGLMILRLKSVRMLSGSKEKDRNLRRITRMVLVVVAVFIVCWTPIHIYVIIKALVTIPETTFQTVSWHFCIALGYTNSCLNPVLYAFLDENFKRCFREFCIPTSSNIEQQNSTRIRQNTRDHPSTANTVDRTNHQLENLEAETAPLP

Row | Compound | inhibition at 1 µM [%] | Ki [nM] | μ-Opioid receptor, % inhibition [1 μM] (1 μM test substance, inhibition of specific [3H]-naloxone binding) [%]
1 | CN(C)C(c1cccc(F)c1)C1CCC(CCNC(=O)c2cc(F)c(Cl)cc2Cl)CC1 (single isomer, unassigned) [compound 438, 2,4-dichloro-N-(2-{4-[dimethylamino-(3-fluoro-phenyl)-methyl]-cyclohexyl}-ethyl)-5-fluoro-benzamide] | 87 | 100 | –
2 | CN(C)C(c1ccccc1)C1CCC(NC(=O)c2cc(F)c(F)cc2F)CC1 (centres unmarked) [compound 196, N-[4-(dimethylamino-phenyl-methyl)-cyclohexyl]-2,4,5-trifluoro-benzamide] | 96 | 19 | –
3 | CN(C)C(c1ccccc1)C1CCC(NC(=O)c2c(F)ccc(F)c2F)CC1 (centres unmarked) [compound 244, N-[4-(dimethylamino-phenyl-methyl)-cyclohexyl]-2,3,6-trifluoro-benzamide] | 82 | 30 | –
4 | CN(C)C(c1cccc(F)c1)C1CCC(CCNC(=O)c2ccc(Cl)cc2)CC1 (centres unmarked) [compound 406, 4-chloro-N-(2-{4-[dimethylamino-(3-fluoro-phenyl)-methyl]-cyclohexyl}-ethyl)-benzamide] | 81 | 40 | –
5 | Cc1cc(C(=O)NC2CCC(C(c3ccccc3)N(C)C)CC2)no1 (centres unmarked) [compound 282, 5-methyl-isoxazole-3-carboxylic acid [4-(dimethylamino-phenyl-methyl)-cyclohexyl]-amide] | 73 | 110 | –
6 | CN(C)C(c1ccc(Cl)cc1)C1CCC(CNC(=O)C(c2ccccc2)c2ccccc2)CC1 (centres unmarked) [compound 312, N-{4-[(4-chloro-phenyl)-dimethylamino-methyl]-cyclohexylmethyl}-2,2-diphenyl-acetamide] | 97 | 53 | –
7 | Cc1ccc(Oc2ncccc2C(=O)NCC2CCC(C(c3cccs3)N(C)C)CC2)cc1 (centres unmarked) [compound 352, N-[4-(dimethylamino-thiophen-2-yl-methyl)-cyclohexylmethyl]-2-p-tolyloxy-nicotinamide] | 87 | – | –
8 | 4-((dimethylamino)(phenyl)methyl)-1-(4-fluoro-3-methylphenyl)cyclohexanol [compound 150] | – | – | 74
9 | COc1cccc(OC)c1C(=O)NCC1CCC(C(c2cccs2)N(C)C)CC1 (centres unmarked) [compound 300, N-[4-(dimethylamino-thiophen-2-yl-methyl)-cyclohexylmethyl]-2,6-dimethoxy-benzamide] | 99 | 1.4 | –
10 | CN(C)C(c1ccccc1)C1CCC(CCNC(=O)c2c(F)c(F)c(F)c(F)c2F)CC1 (centres unmarked) [compound 460, N-{2-[4-(dimethylamino-phenyl-methyl)-cyclohexyl]-ethyl}-2,3,4,5,6-pentafluoro-benzamide] | 97 | 9.5 | –
11 | Cc1cc(C(=O)NC2CCC(C(c3cccs3)N(C)C)CC2)no1 (centres unmarked) [compound 224, 5-Methyl-isoxazole-3-carboxylic acid [4-(dimethylamino-thiophen-2-yl-methyl)-cyclohexyl]-amide] | 87 | – | –
12 | CN(C)C(c1ccccc1)C1CCC(CNC(=O)c2cc(Cl)cc(Cl)c2)CC1 (centres unmarked) [compound 329, 3,5-dichloro-N-[4-(dimethylamino-phenyl-methyl)-cyclohexylmethyl]-benzamide] | 94 | 35 | –
13 | CN(C)C(c1cccc(F)c1)C1CCC(CNC(=O)c2csc(-c3ccccc3)n2)CC1 (centres unmarked) [compound 365, 2-phenyl-thiazole-4-carboxylic acid {4-[dimethylamino-(3-fluoro-phenyl)-methyl]-cyclohexylmethyl}-amide] | 85 | 74 | –
14 | COc1c(C(=O)NCCC2CCC(C(CCc3ccccc3)N(C)C)CC2)csc1Cl (centres unmarked) [compound 476, 5-chloro-4-methoxy-thiophene-3-carboxylic acid {2-[4-(1-dimethylamino-3-phenyl-propyl)-cyclohexyl]-ethyl}-amide] | 87 | 84 | –
15 | Cc1ccc(Oc2ncccc2C(=O)NC2CCC(C(c3cccs3)N(C)C)CC2)cc1 (centres unmarked) [compound 220, N-[4-(dimethylamino-thiophen-2-yl-methyl)-cyclohexyl]-2-p-tolyloxy-nicotinamide] | 88 | 150 | –
16 | CN(C)C(c1ccccc1)C1CCC(NC(=O)C23CC4CC(CC(C4)C2)C3)CC1 (centres unmarked) [compound 236, adamantane-1-carboxylic acid [4-(dimethylamino-phenyl-methyl)-cyclohexyl]-amide] | 83 | 63 | –
17 | CN(C)C(c1cccc(F)c1)C1CCC(NC(=O)Cc2ccc(Cl)cc2)CC1 (centres unmarked) [compound 274, 2-(4-chloro-phenyl)-N-{4-[dimethylamino-(3-fluoro-phenyl)-methyl]-cyclohexyl}-acetamide] | 74 | 99 | –
18 | CCCc1ccc(C(=O)NC2CCC(C(c3cccs3)N(C)C)CC2)cc1 (centres unmarked) [compound 185, N-[4-(dimethylamino-thiophen-2-yl-methyl)-cyclohexyl]-4-propyl-benzamide] | 100 | 37 | –

Row | Compound | inhibition at 1 µM [%] | Ki [nM] | μ-Opioid receptor, % inhibition [1 μM] (1 μM test substance, inhibition of specific [3H]-naloxone binding) [%]
19 | CN(C)C(c1ccccc1)C1CCC(NC(=O)c2csc3ccccc23)CC1 (centres unmarked) [compound 183, benzo[b]thiophene-3-carboxylic acid [4-(dimethylamino-phenyl-methyl)-cyclohexyl]-amide] | 103 | 3.9 | –
20 | CN(C)C(c1cccc(F)c1)C1CCC(NC(=O)Cc2ccccc2)CC1 (centres unmarked) [compound 240, N-{4-[dimethylamino-(3-fluoro-phenyl)-methyl]-cyclohexyl}-2-phenyl-acetamide] | 82 | 51 | –
21 | CC(Oc1ccccc1)C(=O)NC1CCC(C(c2ccccc2)N(C)C)CC1 (centres unmarked) [compound 230, N-[4-(dimethylamino-phenyl-methyl)-cyclohexyl]-2-phenoxy-propionamide] | 86 | 21 | –
22 | CN(C)C(c1ccc(Cl)cc1)C1CCC(CCNC(=O)c2ccc(F)cc2)CC1 (centres unmarked) [compound 408, N-(2-{4-[(4-chloro-phenyl)-dimethylamino-methyl]-cyclohexyl}-ethyl)-4-fluoro-benzamide] | 82 | 12 | –
23 | CC(=O)N(CCc1c[nH]c2ccccc12)C1CCC(C(c2ccccc2)N(C)C)CC1 (centres unmarked) [compound 182, N-(2-(1H-indol-3-yl)ethyl)-N-(4-((dimethylamino)(phenyl)methyl)cyclohexyl)-acetamide] | 95 | 2.1 | –
24 | CCn1nc(C)c(Br)c1C(=O)NCC1CCC(C(c2ccccc2)N(C)C)CC1 (centres unmarked) [compound 390, 4-bromo-2-ethyl-5-methyl-2H-pyrazole-3-carboxylic acid [4-(dimethylamino-phenyl-methyl)-cyclohexylmethyl]-amide] | 81 | – | –
25 | CCC(C(=O)NC1CCC(C(c2ccccc2)N(C)C)CC1)c1ccccc1 (single isomer, unassigned) [compound 234, N-[4-(dimethylamino-phenyl-methyl)-cyclohexyl]-2-phenyl-butyramide] | 84 | 46 | –
26 | Cc1ccccc1C(=O)NCCC1CCC(C(c2ccccc2)N(C)C)CC1 (single isomer, unassigned) [compound 417, N-{2-[4-(dimethylamino-phenyl-methyl)-cyclohexyl]-ethyl}-2-methyl-benzamide] | 91 | 31 | –
27 | Cc1cc(C(=O)NC2CCC(C(c3ccccc3)N(C)C)CC2)n(C(C)(C)C)n1 (centres unmarked) [compound 223, 2-tert-butyl-5-methyl-2H-pyrazole-3-carboxylic acid [4-(dimethylamino-phenyl-methyl)-cyclohexyl]-amide] | 88 | 20 | –
28 | CN(C)C(c1ccccc1)C1CCC(CCNC(=O)c2cc(F)cc(F)c2)CC1 (centres unmarked) [compound 433, N-{2-[4-(dimethylamino-phenyl-methyl)-cyclohexyl]-ethyl}-3,5-difluoro-benzamide] | 89 | 3.8 | –
29 | CN(C)C(c1cccc(F)c1)C1CCC(NC(=O)c2cc(F)cc(F)c2)CC1 (centres unmarked) [compound 204, N-{4-[dimethylamino-(3-fluoro-phenyl)-methyl]-cyclohexyl}-3,5-difluoro-benzamide] | 94 | 18 | –
30 | CN(C)C(c1cccc(F)c1)C1CCC(CNC(=O)c2ccccc2Br)CC1 (centres unmarked) [compound 363, 2-bromo-N-{4-[dimethylamino-(3-fluoro-phenyl)-methyl]-cyclohexylmethyl}-benzamide] | 85 | 38 | –
31 | COc1c(C(=O)NCC2CCC(C(c3ccc(F)cc3)N(C)C)CC2)csc1Cl (centres unmarked) [compound 376, 5-chloro-4-methoxy-thiophene-3-carboxylic acid {4-[dimethylamino-(4-fluoro-phenyl)-methyl]-cyclohexylmethyl}-amide] | 84 | 40 | –
32 | CN(C)C(c1ccccc1)C1CCC(CNC(=O)c2cccs2)CC1 (centres unmarked) [compound 328, thiophene-2-carboxylic acid [4-(dimethylamino-phenyl-methyl)-cyclohexyl-methyl]-amide] | 94 | 16 | –
33 | CN(C)C(c1ccc(F)cc1)C1CCC(CNC(=O)c2csc3ccccc23)CC1 (centres unmarked) [compound 344, benzo[b]thiophene-3-carboxylic acid {4-[dimethylamino-(4-fluoro-phenyl)-methyl]-cyclohexylmethyl}-amide] | 90 | 13 | –
34 | CN(C)C(c1cccc(F)c1)C1CCC(NC(=O)c2csc(-c3ccccc3)n2)CC1 (centres unmarked) [compound 264, 2-phenyl-thiazole-4-carboxylic acid {4-[dimethylamino-(3-fluoro-phenyl)-methyl]-cyclohexyl}-amide] | 78 | 110 | –
35 | CN(C)C(c1ccccc1)C1CCC(CCNC(=O)c2ccc(F)c(F)c2)CC1 (centres unmarked) [compound 444, N-{2-[4-(dimethylamino-phenyl-methyl)-cyclohexyl]-ethyl}-3,4-difluoro-benzamide] | 101 | 11 | –
36 | CCCc1ccc(C(=O)NCC2CCC(C(c3cccs3)N(C)C)CC2)cc1 (centres unmarked) [compound 356, N-[4-(dimethylamino-thiophen-2-yl-methyl)-cyclohexylmethyl]-4-propyl-benzamide] | 86 | 120 | –
